In patent US4260805A, “1-Descarboxy-1-ketoester (ketoacid)-prostaglandins” (American Cyanamid Company, priority 1979, dated 1981):

Test system: bronchospasms elicited by intravenous injections of acetylcholine
Experiment: Bronchodilator activity against bronchospasm elicited by acetylcholine, Konzett procedure
Assay type: in vivo, guinea pigs
Settings: Cavia porcellus; spasmogen acetylcholine; three logarithmic cumulative intravenous doses; guinea pig
Method: The compounds of this invention are useful as bronchodilators for the treatment of asthma and chronic bronchitis. Bronchodilator activity is determined in guinea pigs against bronchospasms elicited by intravenous injections of 5-hydroxytryptamine, histamine or acetylcholine by the Konzett procedure. [See J. Lulling, P. Lievens, F. El Sayed and J. Prignot, Arzneimittel-Forschung, 18, 955 (1968).]
In Table which follows bronchodilator activity for representative compounds of this invention against one or more of three spasmogenic agents is expressed as an ED50 determined from the results obtained with three logarithmic cummulative intravenous doses. In this assay, these compounds of this invention provide an effect of longer duration than does natural 1-PGE1 or 1-PGE2.

## CCCCCC(C)(O)/C=C/[C@H]1[C@H](O)CC(=O)[C@@H]1CCCCCCC(=O)C(=O)OCC (relative stereo) [dl-1,9-dioxo-1-carbethoxy-11α,15-dihydroxy-15-methyl-13-trans-prostene]
  ED50: > 3.2 mg/kg
